The source of these data is patent US10407445B2, “Hepatitis C virus inhibitors” (ENANTA PHARMACEUTICALS, INC., priority 2013, dated 2019).

By EC50 is commonly meant the concentration at which the effect is half-maximal.

Molecules are shown by their SMILES.

Format in all cases: cell-based
Test [1] deals with GT1a replicon encoding NS5A mutation Y93C. Nature of the test: Transient replication assay, GT1a replicon with NS5A mutation Y93C. As to conditions: Hepatitis C virus, read-out: EC50 1a Y93C. (In antiviral work, replicon cells carry a viral genome segment that copies itself.)
Test [2] deals with HCV GT 1a replicon. Put plainly: HCV replicon assay, stable GT 1a replicon (Renilla luciferase). As to conditions: Hepatitis C virus, GT1A; HCV GT 1a replicon, 72 h; read-out: EC50 1a. The protocol: The activity of compounds was determined against HCV replicons representing genotypes (GT) 1a, 1b, 2a, and 3a. To generate stable Huh-7.5-based cell lines, HCV replicons were engineered to express the Renilla luciferase reporter (hRluc) fused to the neomycin phosphotransferase (Neo) gene. GT2a and GT3a HCV replicons were based on the JFH-1 subgenomic replicon (Kato et al. 2003 Gastroenterology, 125:1808-1817), in which the NS5A gene was replaced with that of strains J6 and S52 (GT2a and G3a, respectively). The activity of compounds against GT1a replicons encoding NS5A mutations (M28T, Q30R, L31M, Y93C, and Y93H) was also determined in a transient replication assay. The parental GT1a and GT2a replicons (pH/SG-Neo(L+I) and pSG-Neo-JFH1, respectively) were licensed from Apath LLC (Saint Louis, Mo.). The parental GT 1b replicon (pFKi389lucubineo_3_3′_ET) was licensed from ReBLikon GmbH (Germany). HCV replicons were constructed by standard molecular biology techniques described below. All replicon constructs were verified by restriction enzyme digestion and DNA sequencing.
pH/SG-Neo(L+I) was modified to add the firefly luciferase reporter gene and additional adaptive mutations by replacing the pH/SG-Neo(L+I) NS3-NS5A coding region with the corresponding sequence of pH77-S, creating pH/SG-lucubineo-H77S as described (Borawski J et al. 2009, J Virol 83: 10058-10074). Subsequently, the firefly luciferase-Neo cassette was replaced with the hRluc-Neo cassette. To create a unique cloning site, the NotI restriction site in NS5B was removed using QuickChange II XL Site-Directed Mutagenesis Kit (Agilent) and the following primers: NotI KO Fwd 5′-CTCAAACTCACTCCAATAGCTGCCGCTGGCCGGCTGGAC-3′(G→T mutation removing NotI site underlined) (SEQ. ID No. 1) and NotI KO Rev 5′-GTCCAGCGGGCCAGCGGCAGCTATTGGAGTGAGTTTGAG-3′(C→A mutation removing NotI site underlined) (SEQ. ID No. 2). The resulting vector, pH/SG-lucubineo-H775-NotIKO, was sequenced to confirm the NS5B gene. The hRluc-Neo cassette was PCR amplified from pF9 cytomegalovirus (CMV) hRluc-Neo Flexi(R) (Promega) using Accuprime Super Mix II (Invitrogen) and the following primers, which introduce restriction sites: […]
The amplification product was subcloned into pCR2.1-TOPO (Invitrogen). The resulting plasmid was digested with AscI and NotI, and the excised hRluc-Neo fragment was ligated using the Promega Rapid Ligation Kit (Promega) into pH/SG-lucubineo-H775-NotIKO digested with the same enzymes.
Stable HCV replicon cell lines were grown in complete media (Dulbecco's modified Eagle medium [DMEM], 2 mM L-glutamine, 0.1 mM essential amino acids, 1 mM sodium pyruvate, 10% heat inactivated fetal bovine serum) with the addition 500 μg/ml […] (G418). Huh7-lunet cells were maintained in the same medium without the addition of G418. Cells were routinely passaged at a dilution of 1:4 two times a week. The assay medium for both luciferase reporter HCV replicon and cytotoxicity assays used phenol red-free DMEM and lacked G418. For each stable replicon assay, a sixteen point half-log dilution series of compound was stamped (0.5 ul compound per well) into three replica 384-well plates, to which cells were added directly (4000 cells/well). For the transient replication assay, Huh7-lunet cells in ice-cold phosphate buffered saline (PBS) were electroporated (BioRad electroporator; 950 uF, 270V) with 10 ug purified in vitro transcribed HCV replicon RNA, followed by resuspension in complete media and plating (8000 cells/well) into compound stamped 384-well plates. Luciferase activity of compound-treated cells was measured relative to DMSO-treated cells after 72 h incubation using RENILLA-GLO™ Luciferase Assay (Promega). Cytotoxicity (CC50) in the GT1b replicon cell line was analyzed using CELL TITER-GLO™ (Promega). […]

Test [3] has as its system GT1a replicon encoding NS5A mutation Q30R. Put plainly: Transient replication assay, GT1a replicon with NS5A mutation Q30R. As to conditions: Hepatitis C virus, read-out: EC50 1a Q30R.

On to `COC(=O)N[C@H](C(=O)N1[C@H](c2nc3ccc4cc(-c5ccc(-c6cnc([C@@H]7C[C@@]8(CCCOC8)CN7C(=O)[C@H](NC(=O)OC)C7C[C@@H](C)O[C@H](C)C7)[nH]6)cc5)ccc4c3[nH]2)C[C@@H]2CCCC[C@@H]21)C(C)C` (stereo in doubt) [Compound 39], for which the EC50 in test [1] worked out at 4 nM; in test [2] it was 0.214 nM; in test [3], 0.05 nM.
The matching figures for `COC(=O)N[C@H](C(=O)N1C[C@]2(CCCOC2)C[C@H]1c1ncc(-c2ccc3cc4cc(-c5cnc([C@@H]6C[C@@H]7CCCC[C@@H]7N6C(=O)[C@@H](NC(=O)OC)C(C)C)[nH]5)ccc4cc3c2)[nH]1)C(C)C` [Compound 13]: 0.3 nM, 0.036 nM and 0.01 nM.
Consider `COC(=O)N[C@H](C(=O)N1C[C@]2(CCCOC2)C[C@H]1c1ncc(-c2ccc3c(c2)COc2cc(-c4cnc([C@@H]5C[C@@H]6CCCC[C@@H]6N5C(=O)[C@@H](NC(=O)OC)C(C)C)[nH]4)ccc2-3)[nH]1)C(C)C` [Compound 15], for which the figures for the EC50 in test [1], in test [2] and in test [3] were 0.2 nM, 0.008 nM and 0.003 nM, respectively.
For `COC(=O)N[C@H](C(=O)N1C[C@]2(CCCOC2)C[C@H]1c1ncc(-c2ccc3c(ccc4cc(-c5cnc([C@@H]6C[C@@H]7CCCC[C@@H]7N6C(=O)[C@@H](NC(=O)OC)C(C)C)[nH]5)ccc43)c2)[nH]1)C(C)C` [Compound 17], in that order: 0.3 nM, 0.012 nM and 0.01 nM.
The matching figures for `COC(=O)N[C@H](C(=O)N1C[C@]2(CCCOC2)C[C@H]1c1ncc(-c2ccc(-c3ccc4c(ccc5nc([C@@H]6C[C@@H]7C[C@@H]7N6C(=O)[C@@H](NC(=O)OC)C(C)C)[nH]c54)c3)cc2)[nH]1)C(C)C` [Compound 20]: 1 nM, 0.014 nM and 0.2 nM.
For `COC(=O)N[C@H](C(=O)N1CCC[C@H]1c1nc2c([nH]1)-c1ccc(-c3ccc4c(ccc5nc([C@@H]6C[C@@]7(CCCOC7)CN6C(=O)[C@@H](NC(=O)OC)C(C)C)[nH]c54)c3)cc1OC2)C(C)C` [Compound 25], in that order: 0.09 nM, 0.027 nM and 0.2 nM.
In the case of `COC(=O)N[C@H](C(=O)N1C[C@]2(CCOC2)C[C@H]1c1ncc(-c2ccc(-c3ccc4c(ccc5nc([C@@H]6CCCN6C(=O)[C@@H](NC(=O)OC)C(C)C)[nH]c54)c3)cc2)[nH]1)C(C)C` [Compound 26], the values for the EC50 in test [1], in test [2] and in test [3] were 0.8 nM, 0.025 nM and 0.8 nM, respectively.
As to `COC(=O)N[C@H](C(=O)N1C[C@@]2(CCCOC2)C[C@H]1c1ncc(-c2ccc(-c3ccc4c(ccc5nc([C@@H]6CCCN6C(=O)[C@@H](NC(=O)OC)C(C)C)[nH]c54)c3)cc2)[nH]1)C(C)C` [Compound 27], the 50% effective concentration (EC50) in test [1] turned out to be 0.02 nM; in test [2], 0.013 nM; in test [3], 0.06 nM.
For `COC(=O)N[C@H](C(=O)N1C[C@]2(CCCOC2)C[C@H]1c1ncc(-c2ccc(-c3ccc4c(c3)OCc3nc([C@@H]5CCCN5C(=O)[C@@H](NC(=O)OC)C(C)C)[nH]c3-4)cc2)[nH]1)C(C)C` [Compound 30], in that order: 0.5 nM, 0.05 nM and 0.1 nM.
For the molecule `COC(=O)N[C@H](C(=O)N1CCC[C@H]1c1ncc(-c2ccc(-c3ccc4c(c3)OCc3nc([C@@H]5C[C@@]6(CCCOC6)CN5C(=O)[C@@H](NC(=O)OC)C(C)C)[nH]c3-4)cc2)[nH]1)C(C)C` [Compound 33], the EC50 was 0.1 nM in test [1], 0.027 nM in test [2] and 0.2 nM in test [3].
With `COC(=O)N[C@H](C(=O)N1C[C@]2(CCCOC2)C[C@H]1c1nc2ccc3cc(-c4ccc5c(ccc6nc([C@@H]7C[C@@H]8COC[C@@H]8N7C(=O)[C@@H](NC(=O)OC)C(C)C)[nH]c65)c4)ccc3c2[nH]1)C(C)C` [Compound 36], the EC50 in test [1] turned out to be 0.06 nM; in test [2] it was 0.029 nM; in test [3], 0.04 nM.
For `COC(=O)N[C@H](C(=O)N1C[C@]2(CCCOC2)C[C@H]1c1ncc(-c2ccc(-c3ccc4c(c3)CCCc3nc([C@@H]5C[C@@H]6CCCC[C@@H]6N5C(=O)[C@@H](NC(=O)OC)C(C)C)[nH]c3-4)cc2)[nH]1)C(C)C` [Compound 40], in that order: 0.7 nM, 0.011 nM and 0.05 nM.
The matching figures for `COC(=O)N[C@H](C(=O)N1C[C@]2(CCCOC2)C[C@H]1c1ncc(-c2ccc(-c3ccc4c(c3)OCc3nc([C@@H]5C[C@@H]6CCCC[C@@H]6N5C(=O)[C@@H](NC(=O)OC)C(C)C)[nH]c3-4)cc2)[nH]1)C(C)C` [Compound 42]: 0.6 nM, 0.006 nM and 0.05 nM.
The matching figures for `COC(=O)N[C@H](C(=O)N1C[C@@]2(CCOC2)C[C@H]1c1ncc(-c2ccc(-c3ccc4c(ccc5nc([C@@H]6C[C@]7(CCOC7)CN6C(=O)[C@@H](NC(=O)OC)C(C)C)[nH]c54)c3)cc2)[nH]1)C(C)C` [Compound 49]: 0.4 nM, 0.01 nM and 0.2 nM.
For the molecule `COC(=O)N[C@H](C(=O)N1C[C@@]2(CCOC2)C[C@H]1c1ncc(-c2ccc(-c3ccc4c(ccc5nc([C@@H]6CCCN6C(=O)[C@@H](NC(=O)OC)C(C)C)[nH]c54)c3)cc2)[nH]1)C(C)C` [Compound 50], the values for the EC50 in test [1], in test [2] and in test [3] were 0.4 nM, 0.014 nM and 0.4 nM, respectively.
As to `COC(=O)N[C@H](C(=O)N1C[C@]2(CCCCO2)C[C@H]1c1nc(-c2ccc(-c3ccc4c(ccc5nc([C@@H]6CCCN6C(=O)[C@@H](NC(=O)OC)C(C)C)[nH]c54)c3)cc2)c[nH]1)C(C)C` [Example 2], the EC50 in test [1] stood at 0.2 nM; in test [2], 0.012 nM; in test [3], 0.03 nM.
The matching figures for `COC(=O)N[C@H](C(=O)N1C[C@@]2(CCCCO2)C[C@H]1c1nc(-c2ccc(-c3ccc4c(ccc5nc([C@@H]6CCCN6C(=O)[C@@H](NC(=O)OC)C(C)C)[nH]c54)c3)cc2)c[nH]1)C(C)C` [Example 3]: 0.7 nM, 0.146 nM and 5 nM.
For `COC(=O)N[C@H](C(=O)N1C[C@]2(CCCO2)C[C@H]1c1ncc(-c2ccc(-c3ccc4c(ccc5nc([C@@H]6CCCN6C(=O)[C@@H](NC(=O)OC)C(C)C)[nH]c54)c3)cc2)[nH]1)C(C)C` [Example 81], in that order: 0.2 nM, 0.015 nM and 0.05 nM.
For `COC(=O)N[C@H](C(=O)N1C[C@@]2(CCCO2)C[C@H]1c1ncc(-c2ccc(-c3ccc4c(ccc5nc([C@@H]6CCCN6C(=O)[C@@H](NC(=O)OC)C(C)C)[nH]c54)c3)cc2)[nH]1)C(C)C` [Example 82], in that order: 0.2 nM, 0.059 nM and 3 nM.
`COC(=O)N[C@H](C(=O)N1CC2(CCOCC2)C[C@H]1c1ncc(-c2ccc(-c3ccc4c(ccc5nc([C@@H]6CCCN6C(=O)[C@@H](NC(=O)OC)C(C)C)[nH]c54)c3)cc2)[nH]1)C(C)C` [Example 83]: the figures for the EC50 in test [1], in test [2] and in test [3] were 1 nM, 0.029 nM and 1 nM, respectively.
